Earlier results as cited in patent US7485658B2, “N-substituted pyrazolyl-amidyl-benzimidazolyl c-Kit inhibitors” (OSI Pharmaceuticals, Inc., priority 2003, dated 2009).
Where a name gives a salt, the structure may show the parent alone.

Columns and labels:
[1] = test system: MO7e human leukemia cells
[2] = test system: MO7e human leukemia cells; remark: listed apart in the source

## Cc1ccc(NC(=O)c2ccc(CN3CCN(C)CC3)cc2)cc1Nc1nccc(-c2cccnc2)n1 [Gleevec, imatinib mesylate]
[1]; Kit ligand stimulated
  Kit ligand-stimulated growth of MO7e cells: inhibited
[1]; Kit ligand stimulated conditions
  apoptosis in MO7e cells: induces apoptosis
[2]
  GM-CSF stimulated growth of MO7e cells: not affected
